Data: patent US20140364483A1, “ALTERNATIVE SPLICING VARIANTS OF GENES ASSOCIATED WITH PROSTATE CANCER RISK AND SURVIVAL” (The George Washington University, priority 2011, published 2014)
d = 2'-deoxy (DNA); r = 2'-OH (RNA); {P} = phosphate

Columns and labels:
Format in all cases: cell-based, human
MDA PCa 2b cells [1] = test: Cell proliferation after siRNA knockdown of splice variants; settings: AA PCa cell line MDA PCa 2b
From the text: (§1) The predominant expression of the L variant and very little to no expression of the S variant in the CA PCa cell line is consistent with the CA patient samples (see PIK3CD in FIG. 4). SiRNA-mediated knockdown of the L variant in VCaP cells leads to a decrease in Matrigel invasion and a decrease in proliferation (FIG. 7A). By comparison, the AA PCa cell line MDA PCa 2b expresses both an L and S variant, and knockdown of the L variant leads to an increase in Matrigel invasion and an increase in proliferation (FIG. 7A). Since VCaP cells express very little to no S variant, targeted siRNA-mediated knockdown of this variant leads to no change in Matrigel invasion and proliferation (FIG. 7B). In contrast, targeted knockdown of the S variant in MDA PCa 2b cells leads to decreased Matrigel invasion and decreased proliferation (since the S variant is found almost exclusively in AA patient samples, it is referred to as the ‘AA variant’) (FIG. 7B). […] Analogous findings were obtained in MDA PCa 2b cells when the ratio of the ‘AA variant’ (S or b isoform) was increased over the ‘CA variant’ (L or an isoform) for the FGFR3, TSC2.
(§2) For RASGRP2, the long variant (with exon 10) is common to both AA and CA patients, whereas the short variant (without exon 10) is unique to AA. Targeted knockdown of the long splicing variant in VCaP cells reduced Matrigel invasion and an increase in proliferation (FIG. 8).

VCaP cells [2] = test: as above; settings: CA PCa cell line VCaP
From the text: as §1, §2

MDA PCa 2b cells [3] = test: Matrigel invasion after siRNA knockdown of splice variants; settings: AA PCa cell line MDA PCa 2b
From the text: as §1, §2

VCaP cells [4] = test: as above; settings: CA PCa cell line VCaP
From the text: as §1, §2

AKT pathway = AKT pathway phosphorylation after knockdown of PIK3CD long variant
From the text: Activation of AKT is known to promote cell growth and mRNA translation (FIG. 9a). When the expression of PIK3CD “long” variant is knocked down by siRNA targeting of Exon 23 in the VCaP cell line, which only expresses the long variant, there is a decrease of phosphorylation of AKT, compared to nonsense siRNA control, and also decrease of phosphorylation of downstream signaling proteins mTOR and S6 (FIG. 9b). […] In other words, increasing S/L variants proportion in MDA PCa 2b cells activates the AKT pathways.

[5] = VCaP cell line, compared to nonsense siRNA control

Substance	proliferation (MDA PCa 2b cells [1])	proliferation (VCaP cells [2])	Matrigel invasion (MDA PCa 2b cells [3])	Matrigel invasion (VCaP cells [4])	AKT phosphorylation, both on Thr308 and Ser473 (AKT pathway; MDA PCa 2b cells)	phosphorylation of mTOR and S6 (AKT pathway; MDA PCa 2b cells)	phosphorylation of AKT (AKT pathway; [5])	phosphorylation of downstream signaling proteins mTOR and S6 (AKT pathway; [5])
siPIK3CD-S: siRNA duplex SEQ ID Nos. 12 and 13, sense 5′ UGAGGGAGGCCCUGGAUCGAdTdT 3′; knocks down PIK3CD short variant (antisense UCGAUCCAGGGCCUCCCUCA; sense: RNA, 3' dTdT, backbone not given here; antisense: RNA, 5' {P}, 3' dTdT, backbone not given here)	decreased	no change	decreased	no change				
siPIK3CD-ex23: siRNA duplex SEQ ID Nos. 4 and 5, sense 5′ CCAACAUCCAACUCAACAAdTdT 3′; knocks down PIK3CD long variant (antisense UUGUUGAGUUGGAUGUUGG; sense: RNA, 3' dTdT, backbone not given here; antisense: RNA, 5' {P}, 3' dTdT, backbone not given here)	increase	decrease	increase	decrease	markedly increases	increases	decrease	decrease
siRNA targeting RASGRP2 exon 10: siRNA duplex SEQ ID Nos. 40 and 41, sense 5′ GUGGAGCACAUCGAGAAGAdTdT 3′; long variant contains exon 10 (sense GUGGAGCACAUCGAGAAGATT; antisense UCUUCUCGAUGUGCUCCAC; sense: sugars from the 5' end r19 d2, backbone not given here; antisense: chemistry not given here)	opposite effect	increase	opposite effect	reduced				
